Several values for one entry are separate records, joined by “and”; a condition that tells them apart may be missing. Equal entries are not always repeated. Toxic doses and inconclusive results are not listed.

The values that follow come from PubChem BioAssay AID248 (DTP/NCI, 2004).

The test system of the test is L1210 leukemia ip in BDF1 mice, survival T/C. Description: NCI In Vivo Anticancer Drug Screen. Data for tumor model L1210 Leukemia (intraperitoneal) in B6D2F1 (BDF1) mice. Conditions: higher = longer survival. The procedure, abridged:
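In this screen, tumor-bearing mice given compound are compared to those given vehicle, and their survival values are reported as a treated-to-control quotient.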

Turning to `COC(=O)C[C@](O)(CCCC(C)(C)O)C(=O)O[C@@H]1C(OC)=C[C@]23CCCN2CCc2cc4c(cc2[C@H]13)OCO4`, the T/C by setting is: (endpoint: mean survival time, dose: 0.06 mg/kg/injection, schedule: Q01DX009 (ip), vehicle: water) 110 % of control; (endpoint: mean survival time, dose: 0.13 mg/kg/injection, schedule: Q01DX009 (ip), vehicle: water) 111 % of control; (endpoint: mean survival time, dose: 0.25 mg/kg/injection, schedule: Q01DX009 (ip), vehicle: acid diluted with saline) 113 % of control; (endpoint: mean survival time, dose: 0.25 mg/kg/injection, schedule: Q01DX009 (ip), vehicle: water) 113 % of control and 123 % of control (2×); (endpoint: mean survival time, dose: 0.25 mg/kg/injection, schedule: Q03HX008 (ip), vehicle: acid diluted with saline) 114 % of control; (endpoint: mean survival time, dose: 0.25 mg/kg/injection, schedule: Q03HX016 (ip), vehicle: acid diluted with saline) 108 % of control. In addition, the T/C was 111 % of control (endpoint: mean survival time, dose: 0.5 mg/kg/injection, schedule: Q01DX006 (iv), vehicle: acid diluted with saline); 120 % of control (endpoint: mean survival time, dose: 0.5 mg/kg/injection, schedule: Q01DX009 (ip), vehicle: acid diluted with saline); 105 % of control (endpoint: mean survival time, dose: 0.5 mg/kg/injection, schedule: Q01DX009 (oral), vehicle: acid diluted with saline); 103 % of control (endpoint: mean survival time, dose: 0.5 mg/kg/injection, schedule: Q01DX009 (oral), vehicle: saline); 100 % of control (endpoint: mean survival time, dose: 0.5 mg/kg/injection, schedule: Q01DX009 (sc), vehicle: acid diluted with saline); 112 % of control (endpoint: mean survival time, dose: 0.5 mg/kg/injection, schedule: Q01DX009 (sc), vehicle: saline). Further, the T/C runs as follows: (endpoint: mean survival time, dose: 0.5 mg/kg/injection, schedule: Q03HX008 (ip), vehicle: acid diluted with saline) 120 % of control; (endpoint: mean survival time, dose: 0.5 mg/kg/injection, schedule: Q03HX016 (ip), vehicle: acid diluted with saline) 117 % of control; (endpoint: mean survival time, dose: 1.0 mg/kg/injection, schedule: Q01DX006 (iv), vehicle: acid diluted with saline) 116 % of control; (endpoint: mean survival time, dose: 1.0 mg/kg/injection, schedule: Q01DX009 (oral), vehicle: acid diluted with saline) 107 % of control; (endpoint: mean survival time, dose: 1.0 mg/kg/injection, schedule: Q01DX009 (oral), vehicle: saline) 108 % of control; (endpoint: mean survival time, dose: 1.0 mg/kg/injection, schedule: Q01DX009 (sc), vehicle: acid diluted with saline) 117 % of control. In addition, the T/C is 124 % of control (endpoint: mean survival time, dose: 1.0 mg/kg/injection, schedule: Q01DX009 (sc), vehicle: saline); 120 % of control (endpoint: mean survival time, dose: 1.0 mg/kg/injection, schedule: Q03HX008 (ip), vehicle: acid diluted with saline); 119 % of control (endpoint: mean survival time, dose: 1.0 mg/kg/injection, schedule: Q03HX016 (ip), vehicle: acid diluted with saline); 110 % of control (endpoint: mean survival time, dose: 1.0 mg/kg/injection, schedule: Q04DX003 (ip), vehicle: acid diluted with saline); 111 % of control (endpoint: mean survival time, dose: 2.0 mg/kg/injection, schedule: Q01DX001 (ip), vehicle: acid diluted with saline); 113 % of control (endpoint: mean survival time, dose: 2.0 mg/kg/injection, schedule: Q01DX001 (iv), vehicle: acid diluted with saline). The T/C (endpoint: mean survival time, dose: 2.0 mg/kg/injection, schedule: Q01DX001 (oral), vehicle: acid diluted with saline) was 105 % of control; the T/C (endpoint: mean survival time, dose: 2.0 mg/kg/injection, schedule: Q01DX001 (sc), vehicle: acid diluted with saline) is 109 % of control; the T/C (endpoint: mean survival time, dose: 2.0 mg/kg/injection, schedule: Q01DX006 (iv), vehicle: acid diluted with saline) is 116 % of control; the T/C (endpoint: mean survival time, dose: 2.0 mg/kg/injection, schedule: Q01DX009 (ip), vehicle: acid diluted with saline) was 150 % of control; the T/C (endpoint: mean survival time, dose: 2.0 mg/kg/injection, schedule: Q01DX009 (oral), vehicle: acid diluted with saline) was 117 % of control; the T/C (endpoint: mean survival time, dose: 2.0 mg/kg/injection, schedule: Q01DX009 (oral), vehicle: saline) was 120 % of control. Further, the T/C is, setting by setting: (endpoint: mean survival time, dose: 2.0 mg/kg/injection, schedule: Q01DX009 (sc), vehicle: saline) 116 % of control; (endpoint: mean survival time, dose: 2.0 mg/kg/injection, schedule: Q08DX002 (ip), vehicle: acid diluted with saline) 107 % of control; (endpoint: mean survival time, dose: 4.0 mg/kg/injection, schedule: Q01DX001 (ip), vehicle: acid diluted with saline) 114 % of control; (endpoint: mean survival time, dose: 4.0 mg/kg/injection, schedule: Q01DX001 (iv), vehicle: acid diluted with saline) 109 % of control; (endpoint: mean survival time, dose: 4.0 mg/kg/injection, schedule: Q01DX001 (oral), vehicle: acid diluted with saline) 109 % of control; (endpoint: mean survival time, dose: 4.0 mg/kg/injection, schedule: Q01DX001 (sc), vehicle: acid diluted with saline) 109 % of control. The T/C runs as follows: (endpoint: mean survival time, dose: 4.0 mg/kg/injection, schedule: Q01DX006 (iv), vehicle: acid diluted with saline) 122 % of control; (endpoint: mean survival time, dose: 4.0 mg/kg/injection, schedule: Q01DX009 (ip), vehicle: acid diluted with saline) 86 % of control; (endpoint: mean survival time, dose: 4.0 mg/kg/injection, schedule: Q01DX009 (oral), vehicle: acid diluted with saline) 123 % of control; (endpoint: mean survival time, dose: 4.0 mg/kg/injection, schedule: Q01DX009 (sc), vehicle: acid diluted with saline) 111 % of control; (endpoint: mean survival time, dose: 4.0 mg/kg/injection, schedule: Q04DX003 (ip), vehicle: acid diluted with saline) 119 % of control; (endpoint: mean survival time, dose: 4.0 mg/kg/injection, schedule: Q08DX002 (ip), vehicle: acid diluted with saline) 109 % of control. Besides, the T/C runs as follows: (endpoint: mean survival time, dose: 8.0 mg/kg/injection, schedule: Q01DX001 (iv), vehicle: acid diluted with saline) 114 % of control; (endpoint: mean survival time, dose: 8.0 mg/kg/injection, schedule: Q04DX003 (ip), vehicle: acid diluted with saline) 102 % of control; (endpoint: mean survival time, dose: 125.0 micrograms/kg/injection, schedule: Q03HX024 (ip), vehicle: acid diluted with saline) 119 % of control; (endpoint: mean survival time, dose: 1000.0 micrograms/kg/injection, schedule: Q03HX024 (ip), vehicle: acid diluted with saline) 89 % of control; (endpoint: median survival time, dose: 1.0 mg/kg/injection, schedule: Q04DX003 (ip), vehicle: saline) 110 % of control; (endpoint: median survival time, dose: 2.0 mg/kg/injection, schedule: Q04DX003 (ip), vehicle: saline) 113 % of control. The T/C (endpoint: median survival time, dose: 4.0 mg/kg/injection, schedule: Q04DX003 (ip), vehicle: saline) was 100 % of control.

Turning to `CCCCOC(=O)CC(C(=O)OCCCC)S(=O)(=O)O` (configuration not stated), the T/C was 96 % of control (endpoint: mean survival time, dose: 100.0 mg/kg/injection, schedule: Q01DX001 (ip), vehicle: saline); 104 % of control (endpoint: mean survival time, dose: 200.0 mg/kg/injection, schedule: Q01DX001 (ip), vehicle: saline); 101 % of control (endpoint: mean survival time, dose: 400.0 mg/kg/injection, schedule: Q01DX001 (ip), vehicle: saline).

In the case of `C[C@@H]1C[C@@]2(C)[C@@H](CC[C@@H]3[C@@H]2CC[C@]2(C)[C@@H](O)CC[C@@H]32)C[C@@H]1O`, the T/C is 100 % of control (endpoint: mean survival time, dose: 62.5 mg/kg/injection, schedule: Q01DX015 (sc), vehicle: steriod suspending solution); 94 % of control (endpoint: mean survival time, dose: 125.0 mg/kg/injection, schedule: Q01DX015 (sc), vehicle: steriod suspending solution); 102 % of control (endpoint: mean survival time, dose: 250.0 mg/kg/injection, schedule: Q01DX015 (sc), vehicle: steriod suspending solution); 94 % of control (endpoint: mean survival time, dose: 500.0 mg/kg/injection, schedule: Q01DX015 (sc), vehicle: steriod suspending solution).

For the compound `CCCCCCCCCCCn1cnc2c(N)ncnc21`, the T/C by setting is: (endpoint: mean survival time, dose: 12.5 mg/kg/injection, schedule: Q01DX005 (ip), vehicle: other) 93 % of control; (endpoint: mean survival time, dose: 25.0 mg/kg/injection, schedule: Q01DX005 (ip), vehicle: other) 103 % of control; (endpoint: mean survival time, dose: 50.0 mg/kg/injection, schedule: Q01DX005 (ip), vehicle: other) 92 % of control; (endpoint: mean survival time, dose: 100.0 mg/kg/injection, schedule: Q01DX005 (ip), vehicle: other) 103 % of control; (endpoint: mean survival time, dose: 200.0 mg/kg/injection, schedule: Q01DX005 (ip), vehicle: other) 104 % of control.

For `O=C(Nc1cccc(O)c1)C(O)C(O)C(O)C(O)CO` (configuration not stated), the T/C by setting is: (endpoint: mean survival time, dose: 100.0 mg/kg/injection, schedule: Q04DX003 (ip), vehicle: saline) 97 % of control; (endpoint: mean survival time, dose: 200.0 mg/kg/injection, schedule: Q04DX003 (ip), vehicle: saline) 94 % of control; (endpoint: mean survival time, dose: 400.0 mg/kg/injection, schedule: Q04DX003 (ip), vehicle: saline) 91 % of control.

`CCCCCCCNC(=O)Nc1cccc(Cl)c1C`: the T/C by setting is: (endpoint: mean survival time, dose: 25.0 mg/kg/injection, schedule: Q04DX003 (ip), vehicle: Klucel (hydroxypropylcellulose) (HPC)) 103 % of control; (endpoint: mean survival time, dose: 50.0 mg/kg/injection, schedule: Q01DX009 (ip), vehicle: Klucel (hydroxypropylcellulose) (HPC)) 101 % of control; (endpoint: mean survival time, dose: 50.0 mg/kg/injection, schedule: Q04DX003 (ip), vehicle: Klucel (hydroxypropylcellulose) (HPC)) 101 % of control; (endpoint: mean survival time, dose: 100.0 mg/kg/injection, schedule: Q01DX009 (ip), vehicle: Klucel (hydroxypropylcellulose) (HPC)) 89 % of control; (endpoint: mean survival time, dose: 100.0 mg/kg/injection, schedule: Q04DX003 (ip), vehicle: Klucel (hydroxypropylcellulose) (HPC)) 95 % of control and 101 % of control; (endpoint: mean survival time, dose: 200.0 mg/kg/injection, schedule: Q01DX009 (ip), vehicle: Klucel (hydroxypropylcellulose) (HPC)) 93 % of control.

In the case of `CCC(C)(C)c1cccc(C(=O)O)c1O`, the T/C was 104 % of control (endpoint: mean survival time, dose: 100.0 mg/kg/injection, schedule: Q01DX001 (ip), vehicle: carboxymethylcellulose (CMC)) and 93 % of control (endpoint: mean survival time, dose: 200.0 mg/kg/injection, schedule: Q01DX001 (ip), vehicle: carboxymethylcellulose (CMC)).
